Patent US5962533A, “Hydroxy polyamines” (priority 1996, dated 1999)
“And” between values parts separate entries of the source, which are not always exact repeats. Equal entries are not always repeated. Structures can show the parent of a compound that is named as a salt. Where two headings read alike, the source gives them in different places.

Columns and labels:
[1] = Acute toxicity, single intraperitoneal injection; conditions: 325 mg/kg intraperitoneal, five female CD-1 mice
[2] = Chronic toxicity, one dose per day for five days; type: in vivo
Method: In the chronic toxicity regimen, mice were administered the polyamine analogue as one dose per day for five days. Appetite, weight and overall physical appearance were recorded at the time of each injection. After the treatment regimen had been completed, the animals were observed an additional 10 days. The chronic toxicity dosing regimen was set up so that at least one test group was presented with a high fraction of lethalities.

L1210 cells = assay: L1210 growth inhibition, IC50 determinations; type: cell-based, Murine
Method: IC50 Determinations. Cells were grown in 25 cm^2 tissue culture flasks in a total volume of 10 ml. Cultures were treated while in logarithmic growth (0.5-1.0×10^5 cells/ml) with the polyamine derivative diluted in sterile water and filtered through a 0.2 μm filter.
After the indicated time periods, cells were removed from the incubator for counting. Cell number was determined by electronic particle counting (Model ZF coulter counter, Coulter Electronics, Hialeah, Fla.) and confirmed periodically with hemocytometer measurements.
The percentage of control growth was determined as follows: [formula]

[3] = test system: polyamine transport apparatus; assay: Competition with radiolabeled spermidine for uptake into L1210 cells (Ki); type: cell-based, Murine; conditions: L1210 cells, estimated from Lineweaver-Burke plots, read-out: Ki, [3H]-spermidine transport
Method: The same cell line was utilized to evaluate the tetraamines's competition with radiolabeled spermidine for the polyamine uptake apparatus (Ki). The Ki values here are the concentrations of drugs required to inhibit the uptake of radioactive spermidine transport by 50% (Table 1).
Uptake Determinations. The polyamine derivatives were studied for their ability to compete with [^3 H]SPD or [^14 C]SPD for uptake into L1210 leukemia cells in vitro. Cell suspensions were incubated in 1 ml of RPMI-1640 containing 1, 2, 4, 6, 8 and 10 μm radiolabeled SPD alone or with the additional presence of 10, 25 and 50 μm polyamine analogue for 20 minutes at 37° C. At the end of the incubation period, tubes were centrifuged at 900 g for 5 minutes at 0-4° C. The pellet was washed twice with 5 ml of cold RPMI-1640 containing 1 mm SPD, dissolved in 200 μl of 1N NaOH at 60° C. for 1 hour, and neutralized with 1N HCl. The material was transferred to a vial for scintillation counting.

[4] = Metabolism of (HO)2 DEHSPM v. DEHSPM in mouse liver and kidney (HPLC); type: in vivo
Method: Metabolism of (HO)2 DEHSPM v. DEHSPM in Mouse Liver and Kidney. […] In ease case, animals were sacrificed for HPLC analysis one day after the final dose.
HPLC Analysis of Polyamines. Various tissues including the liver and kidney were prepared for HPLC analysis of polyamine content. In order to facilitate their handling, the organs were submerged in liquid nitrogen. Once frozen and weighed, the tissues were homogenized (Tissuemizer, Tekmar, Cincinnati, Ohio) in 1.2N perchloric acid (containing 1,7-diaminoheptane internal standard) in a 1:20 (w/v) ratio. The tissue homogenates were then freeze-thawed three times and stored in a -70° C. freezer until HPLC analysis was performed.
Each chromatographic assay included calibration standards which were treated in the same manner as the samples. […] The concentration of each polyamine was calculated from the peak area by calibration curves obtained by non-weighted least squares linear regression. Peak area and linear regression calculations were performed on a Macintosh Centris 650 with Rainin Dynamax HPLC Method Manager software (Rainin Instrument Co., Ridgefield, N.J.).

[5] = 24 h after regimen, normalized for 30 g mouse
[6] = liver and kidneys, 24 h after regimen, 30 g mouse
[7] = mouse, one day after subchronic equimolar i.p. regimen

SMILES: CCNCC[C@@H](O)CNCCCCNC[C@H](O)CCNCC [(HO)2 DEHSPM, N^1,N^14 -Diethyl-3(R),12(R)-dihydroxyhomospermine tetrahydrochloride]
- deaths after single dose [1]: Three of the five animals died
- # deaths/# animals ([2]; 70 mg/kg per day×5 days): 0/5
- # deaths/# animals ([2]; 80 mg/kg per day×5 days): 0/5
- # deaths/# animals ([2]; 90 mg/kg per day×5 days): 0/10
- # deaths/# animals ([2]; 100 mg/kg per day×5 days): 1/5
- # deaths/# animals ([2]; 120 mg/kg per day×5 days): 2/5
- deaths ([2]; 20, 40 and 60 mg/kg per day×5 days, groups of six animals): No deaths
- LD40 ([2]; mice): 120 mg/kg per day×5 days
- necropsy conclusion in severely affected animals ([2]; mouse, in vivo): potently blocks gastric transport
- LD50 ([2]; mouse, in vivo, mice, subchronic regimen, read-out: LD50 estimated from the slope of the toxicity curve): 130 mg/kg
- IC50 (L1210 cells; Mus musculus, L1210, 96 h, read-out: IC50 96 h, L1210 cells, 96 h): 70 nM
- IC50 (L1210 cells; Mus musculus, read-out: IC50 48 h, L1210 cells, 48 h): 600 nM
- IC50 (L1210 cells; read-out: IC50 96 h, L1210 cells, 96 h): 50 to 90 nM
- Ki ([3]; listed as (OH)2 -DEHSPM): 1800 nM
- Ki [3]: 2000 nM and 1800 nM
- % of total dose present as total drug + metabolite, Kidneys [4, 5]: 4.04%
- % of total dose present as total drug + metabolite, Liver [4, 5]: 5.96%
- % of total dose present as unmetabolized parent drug, Kidneys [4, 5]: .357 ± 0.34%
- % of total dose present as unmetabolized parent drug, Liver [4, 5]: 3.39 ± 0.48%
- Amount of total dose present as dideethylated metabolite HSPM/(HO)2 HSPM, Kidneys [4, 5]: 0.030 µmol
- Amount of total dose present as dideethylated metabolite HSPM/(HO)2 HSPM, Liver [4, 5]: 0.166 µmol
- Amount of total dose present as total drug + metabolite, Kidneys [4, 5]: 0.261 µmol
- Amount of total dose present as total drug + metabolite, Liver [4, 5]: 0.385 µmol
- Amount of total dose present as unmetabolized parent drug, Kidneys [4, 5]: 0.231 µmol
- Amount of total dose present as unmetabolized parent drug, Liver [4, 5]: 0.219 µmol
- % of total dose present as total drug + metabolite, Both Tissues [4, 6]: 10.01%
- % of total dose present as unmetabolized parent drug, Both Tissues [4, 6]: 6.96%
- Amount of total dose present as dideethylated metabolite HSPM/(HO)2 HSPM, Both Tissues [4, 6]: 0.196 µmol
- Amount of total dose present as total drug + metabolite, Both Tissues [4, 6]: 0.646 µmol
- Amount of total dose present as unmetabolized parent drug, Both Tissues [4, 6]: 0.450 µmol
- level of unchanged drug in kidney [4, 7]: 481±46 nmol/g wet weight
- level of unchanged drug in liver [4, 7]: 83.6±11.7 nmol/g wet weight and 84±12 nmol/g wet weight
